# pIC50, pKd: −log10 of the molar value.
# Columns and labels:
# ALK = ALK (Homo sapiens, UniProt Q9UM73); test: Selectivity profile (123 kinase panel); format: biochemical
# BRK = BRK (Homo sapiens, UniProt Q13882); test: Selectivity profile (123 kinase panel); format: biochemical
# BRSK2 = BRSK2 (Homo sapiens, UniProt Q8IWQ3); test: Selectivity profile (123 kinase panel); format: biochemical
# CaMK1α = CaMK1α (Homo sapiens, UniProt Q14012); test: Selectivity profile (123 kinase panel); format: biochemical
# CaMK2α = CaMK2α (Homo sapiens, UniProt Q9UQM7); test: Selectivity profile (123 kinase panel); format: biochemical
# CLK1 = CLK1 (Homo sapiens, UniProt P49759); test: Selectivity profile (123 kinase panel); format: biochemical
# CRAF = CRAF (Homo sapiens, UniProt P04049, Y340D/Y341D); test: Selectivity profile (123 kinase panel); format: biochemical
# CK1α = CK1α (Homo sapiens, UniProt P48729); test: Selectivity profile (123 kinase panel); format: biochemical
# DCAMKL1 = DCAMKL1 (Homo sapiens, UniProt O15075); test: Selectivity profile (123 kinase panel); format: biochemical
# DDR1 = DDR1 (Homo sapiens, UniProt Q08345); test: Selectivity profile (123 kinase panel); format: biochemical
# DNA-PK = DNA-PK (Homo sapiens, UniProt P78527); test: Selectivity profile (123 kinase panel); format: biochemical
# DYRK1A = DYRK1A (Homo sapiens, UniProt Q13627); test: Selectivity profile (123 kinase panel); format: biochemical
# DYRK3 = DYRK3 (Homo sapiens, UniProt O43781); test: Selectivity profile (123 kinase panel); format: biochemical
# EPHB2 = EPHB2 (Homo sapiens, UniProt P29323); test: Selectivity profile (123 kinase panel); format: biochemical
# Erk1 = Erk1 (Homo sapiens, UniProt P27361); test: Selectivity profile (123 kinase panel); format: biochemical
# FGR = FGR (Homo sapiens, UniProt P09769); test: Selectivity profile (123 kinase panel); format: biochemical
# FRK = FRK (Homo sapiens, UniProt P42685); test: Selectivity profile (123 kinase panel); format: biochemical
# IGF1R = IGF1R (Homo sapiens, UniProt P08069); test: Selectivity profile (123 kinase panel); format: biochemical
# JAK2 = JAK2 (Homo sapiens, UniProt O60674); test: Selectivity profile (123 kinase panel); format: biochemical
# JNK1 = JNK1 (Homo sapiens, UniProt P45983); test: Selectivity profile (123 kinase panel); format: biochemical
# JNK2 = JNK2 (Homo sapiens, UniProt P45984); test: Selectivity profile (123 kinase panel); format: biochemical
# KIT = KIT (Homo sapiens, UniProt P10721); test: Selectivity profile (123 kinase panel); format: biochemical
# MARK1 = MARK1 (Homo sapiens, UniProt Q9P0L2); test: Selectivity profile (123 kinase panel); format: biochemical
# MARK3 = MARK3 (Homo sapiens, UniProt P27448); test: Selectivity profile (123 kinase panel); format: biochemical
# MLK1 = MLK1 (Homo sapiens, UniProt P80192); test: Selectivity profile (123 kinase panel); format: biochemical
# MRCKβ = MRCKβ (Homo sapiens, UniProt Q9Y5S2); test: Selectivity profile (123 kinase panel); format: biochemical
# PARP3 = PARP3 (Homo sapiens, UniProt Q9Y6F1); test: Selectivity profile (other isoforms of PARP and NRP family); format: biochemical
# PARP13 = PARP13 (Homo sapiens, UniProt Q7Z2W4); test: as above; format: biochemical
# NRP1 = biological target: T1, NRP1 (Homo sapiens, UniProt O14786); test: Microscale thermophoresis (MST) assay; format: binding; conditions: labeled protein 50 nM, read-out: NRP1 (K d)
# T1 construct: purchased Abcam
# T1 sequence (O14786 22-644 isoform O14786-2 limits assumed): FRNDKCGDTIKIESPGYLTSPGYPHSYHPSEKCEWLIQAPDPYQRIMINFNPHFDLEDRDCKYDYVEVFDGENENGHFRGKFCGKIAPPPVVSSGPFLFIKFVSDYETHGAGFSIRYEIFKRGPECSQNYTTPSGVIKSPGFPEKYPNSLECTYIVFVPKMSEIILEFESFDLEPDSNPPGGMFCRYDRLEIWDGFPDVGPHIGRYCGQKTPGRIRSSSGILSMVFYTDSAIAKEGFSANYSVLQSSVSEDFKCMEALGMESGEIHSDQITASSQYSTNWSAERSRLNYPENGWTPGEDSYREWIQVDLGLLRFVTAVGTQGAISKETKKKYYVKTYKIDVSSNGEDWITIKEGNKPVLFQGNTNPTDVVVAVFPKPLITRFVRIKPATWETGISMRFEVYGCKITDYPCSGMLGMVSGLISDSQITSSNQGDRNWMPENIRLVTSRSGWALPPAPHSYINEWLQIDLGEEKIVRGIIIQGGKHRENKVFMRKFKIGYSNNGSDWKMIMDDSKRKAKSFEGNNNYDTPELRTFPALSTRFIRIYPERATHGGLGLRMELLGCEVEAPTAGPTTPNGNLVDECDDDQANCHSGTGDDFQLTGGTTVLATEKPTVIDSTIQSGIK
# Description: (§1) All samples were diluted in 1 × PBST. […] Affinity Analysis software.
# PARP1 = biological target: T2, PARP1 (Homo sapiens, UniProt P09874); test: Microscale thermophoresis (MST) assay; format: binding; conditions: labeled protein 50 nM, read-out: PARP1 (K d)
# T2 construct: purchased Abcam
# Description: as §1
# Chain of EPHB2 (P29323 19-1055, species assumed): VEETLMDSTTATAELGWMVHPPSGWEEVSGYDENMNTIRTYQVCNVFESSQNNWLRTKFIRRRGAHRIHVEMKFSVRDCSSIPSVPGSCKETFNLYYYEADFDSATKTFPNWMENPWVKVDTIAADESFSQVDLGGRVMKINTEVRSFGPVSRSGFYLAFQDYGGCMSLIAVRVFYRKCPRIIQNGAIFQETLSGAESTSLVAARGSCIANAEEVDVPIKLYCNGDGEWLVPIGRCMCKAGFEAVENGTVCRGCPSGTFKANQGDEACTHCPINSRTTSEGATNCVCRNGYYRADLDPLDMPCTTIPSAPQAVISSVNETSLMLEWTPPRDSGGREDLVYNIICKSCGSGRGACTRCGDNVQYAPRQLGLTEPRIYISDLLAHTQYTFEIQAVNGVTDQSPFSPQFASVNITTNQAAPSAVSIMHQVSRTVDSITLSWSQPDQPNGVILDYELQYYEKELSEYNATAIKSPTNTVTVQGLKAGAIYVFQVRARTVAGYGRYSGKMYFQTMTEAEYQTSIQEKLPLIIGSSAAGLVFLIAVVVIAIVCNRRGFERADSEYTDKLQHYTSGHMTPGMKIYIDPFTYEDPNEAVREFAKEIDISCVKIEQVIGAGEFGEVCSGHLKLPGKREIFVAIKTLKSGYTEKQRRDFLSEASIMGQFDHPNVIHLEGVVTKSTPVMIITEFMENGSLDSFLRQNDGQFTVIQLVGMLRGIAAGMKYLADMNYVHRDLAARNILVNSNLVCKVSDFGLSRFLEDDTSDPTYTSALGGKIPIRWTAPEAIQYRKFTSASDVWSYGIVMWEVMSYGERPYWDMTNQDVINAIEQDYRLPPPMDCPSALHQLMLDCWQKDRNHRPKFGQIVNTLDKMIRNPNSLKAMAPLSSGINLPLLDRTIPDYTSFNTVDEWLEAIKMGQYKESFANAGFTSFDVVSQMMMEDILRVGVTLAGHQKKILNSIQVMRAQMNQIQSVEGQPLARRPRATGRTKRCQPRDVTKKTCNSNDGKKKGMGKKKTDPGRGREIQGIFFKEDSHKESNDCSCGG
# Chain of DYRK3 (O43781 whole entry): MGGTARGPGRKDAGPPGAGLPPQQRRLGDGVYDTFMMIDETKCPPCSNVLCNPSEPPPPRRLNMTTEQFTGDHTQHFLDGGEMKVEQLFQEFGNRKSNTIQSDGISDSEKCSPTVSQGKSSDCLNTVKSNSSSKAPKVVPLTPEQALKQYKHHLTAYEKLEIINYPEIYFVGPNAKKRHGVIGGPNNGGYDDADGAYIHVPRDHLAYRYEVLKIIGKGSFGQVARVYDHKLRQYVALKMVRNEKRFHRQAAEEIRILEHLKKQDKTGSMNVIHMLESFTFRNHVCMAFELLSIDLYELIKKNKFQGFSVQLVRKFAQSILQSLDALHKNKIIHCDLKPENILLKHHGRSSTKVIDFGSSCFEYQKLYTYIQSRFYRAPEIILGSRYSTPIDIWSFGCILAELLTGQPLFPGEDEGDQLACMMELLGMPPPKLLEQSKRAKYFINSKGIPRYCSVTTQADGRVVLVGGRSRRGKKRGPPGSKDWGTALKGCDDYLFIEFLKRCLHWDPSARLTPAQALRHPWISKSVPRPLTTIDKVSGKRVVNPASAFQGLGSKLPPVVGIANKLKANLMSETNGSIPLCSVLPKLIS
# Chain of FRK (P42685 whole entry): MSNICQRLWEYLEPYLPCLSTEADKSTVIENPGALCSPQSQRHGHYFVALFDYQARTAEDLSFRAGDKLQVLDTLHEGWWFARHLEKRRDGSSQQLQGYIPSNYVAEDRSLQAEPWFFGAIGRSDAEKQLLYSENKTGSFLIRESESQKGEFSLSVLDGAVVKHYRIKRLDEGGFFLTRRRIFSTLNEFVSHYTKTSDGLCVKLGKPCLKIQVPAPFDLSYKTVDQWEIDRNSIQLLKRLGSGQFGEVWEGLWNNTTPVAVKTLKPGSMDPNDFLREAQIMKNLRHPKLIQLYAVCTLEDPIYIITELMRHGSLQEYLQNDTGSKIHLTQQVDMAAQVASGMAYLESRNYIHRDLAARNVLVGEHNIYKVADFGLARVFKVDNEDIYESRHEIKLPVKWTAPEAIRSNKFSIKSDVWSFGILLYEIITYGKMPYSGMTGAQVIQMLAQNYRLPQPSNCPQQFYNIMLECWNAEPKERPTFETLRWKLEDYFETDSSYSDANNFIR
# Chain of BRSK2 (Q8IWQ3 whole entry): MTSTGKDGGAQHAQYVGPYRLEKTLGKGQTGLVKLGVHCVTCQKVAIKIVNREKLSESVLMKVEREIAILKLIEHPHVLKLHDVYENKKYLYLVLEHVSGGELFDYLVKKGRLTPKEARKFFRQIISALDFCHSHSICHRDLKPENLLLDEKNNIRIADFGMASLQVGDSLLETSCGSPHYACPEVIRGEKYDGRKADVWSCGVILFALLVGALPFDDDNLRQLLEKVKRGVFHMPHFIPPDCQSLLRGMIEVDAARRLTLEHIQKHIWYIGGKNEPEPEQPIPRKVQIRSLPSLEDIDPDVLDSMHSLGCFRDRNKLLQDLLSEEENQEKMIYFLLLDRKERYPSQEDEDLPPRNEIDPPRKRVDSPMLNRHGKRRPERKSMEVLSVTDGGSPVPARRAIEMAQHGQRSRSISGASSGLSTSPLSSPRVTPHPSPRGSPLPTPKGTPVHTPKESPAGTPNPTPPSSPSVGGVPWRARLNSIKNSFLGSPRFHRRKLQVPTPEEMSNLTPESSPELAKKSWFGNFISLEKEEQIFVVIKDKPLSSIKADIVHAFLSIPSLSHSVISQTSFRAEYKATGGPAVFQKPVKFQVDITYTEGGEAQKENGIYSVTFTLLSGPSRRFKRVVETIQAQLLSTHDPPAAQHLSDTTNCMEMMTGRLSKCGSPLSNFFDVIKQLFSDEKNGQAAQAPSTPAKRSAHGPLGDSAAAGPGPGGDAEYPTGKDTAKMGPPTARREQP
# Chain of CaMK1α (Q14012 whole entry): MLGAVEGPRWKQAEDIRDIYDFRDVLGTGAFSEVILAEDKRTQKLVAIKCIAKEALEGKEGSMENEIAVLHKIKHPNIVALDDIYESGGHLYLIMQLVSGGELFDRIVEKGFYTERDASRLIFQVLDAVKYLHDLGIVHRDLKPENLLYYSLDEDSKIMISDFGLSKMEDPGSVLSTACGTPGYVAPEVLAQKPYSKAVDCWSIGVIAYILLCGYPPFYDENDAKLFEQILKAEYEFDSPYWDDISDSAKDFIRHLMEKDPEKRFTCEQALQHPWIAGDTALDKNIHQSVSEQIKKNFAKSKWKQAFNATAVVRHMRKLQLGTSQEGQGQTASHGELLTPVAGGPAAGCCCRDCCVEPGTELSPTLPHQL
# Chain of PARP13 (Q7Z2W4 whole entry): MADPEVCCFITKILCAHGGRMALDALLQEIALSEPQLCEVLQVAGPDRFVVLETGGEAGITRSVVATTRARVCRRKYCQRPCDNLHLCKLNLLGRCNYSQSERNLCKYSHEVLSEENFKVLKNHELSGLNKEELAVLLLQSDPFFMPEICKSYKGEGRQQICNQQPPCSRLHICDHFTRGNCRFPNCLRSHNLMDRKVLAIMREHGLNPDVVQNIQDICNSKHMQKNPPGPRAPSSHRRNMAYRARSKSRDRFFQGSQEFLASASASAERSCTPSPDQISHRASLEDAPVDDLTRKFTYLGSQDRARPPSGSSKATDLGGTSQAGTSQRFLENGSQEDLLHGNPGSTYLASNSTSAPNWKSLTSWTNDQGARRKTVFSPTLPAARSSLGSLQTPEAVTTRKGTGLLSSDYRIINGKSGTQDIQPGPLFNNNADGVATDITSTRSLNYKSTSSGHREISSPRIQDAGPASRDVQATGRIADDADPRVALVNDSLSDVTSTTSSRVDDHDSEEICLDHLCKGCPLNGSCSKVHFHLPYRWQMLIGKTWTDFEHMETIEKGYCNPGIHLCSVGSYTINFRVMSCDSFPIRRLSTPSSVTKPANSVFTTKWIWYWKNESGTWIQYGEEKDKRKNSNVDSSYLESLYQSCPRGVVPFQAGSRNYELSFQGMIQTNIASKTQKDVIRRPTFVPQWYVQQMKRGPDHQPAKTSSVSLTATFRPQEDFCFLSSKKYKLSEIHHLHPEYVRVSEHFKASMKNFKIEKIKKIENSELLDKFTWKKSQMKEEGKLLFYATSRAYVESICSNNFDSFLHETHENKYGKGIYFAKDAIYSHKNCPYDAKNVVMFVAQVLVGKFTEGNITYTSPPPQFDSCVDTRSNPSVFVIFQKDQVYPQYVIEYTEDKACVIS
# Chain of MARK1 (Q9P0L2 whole entry): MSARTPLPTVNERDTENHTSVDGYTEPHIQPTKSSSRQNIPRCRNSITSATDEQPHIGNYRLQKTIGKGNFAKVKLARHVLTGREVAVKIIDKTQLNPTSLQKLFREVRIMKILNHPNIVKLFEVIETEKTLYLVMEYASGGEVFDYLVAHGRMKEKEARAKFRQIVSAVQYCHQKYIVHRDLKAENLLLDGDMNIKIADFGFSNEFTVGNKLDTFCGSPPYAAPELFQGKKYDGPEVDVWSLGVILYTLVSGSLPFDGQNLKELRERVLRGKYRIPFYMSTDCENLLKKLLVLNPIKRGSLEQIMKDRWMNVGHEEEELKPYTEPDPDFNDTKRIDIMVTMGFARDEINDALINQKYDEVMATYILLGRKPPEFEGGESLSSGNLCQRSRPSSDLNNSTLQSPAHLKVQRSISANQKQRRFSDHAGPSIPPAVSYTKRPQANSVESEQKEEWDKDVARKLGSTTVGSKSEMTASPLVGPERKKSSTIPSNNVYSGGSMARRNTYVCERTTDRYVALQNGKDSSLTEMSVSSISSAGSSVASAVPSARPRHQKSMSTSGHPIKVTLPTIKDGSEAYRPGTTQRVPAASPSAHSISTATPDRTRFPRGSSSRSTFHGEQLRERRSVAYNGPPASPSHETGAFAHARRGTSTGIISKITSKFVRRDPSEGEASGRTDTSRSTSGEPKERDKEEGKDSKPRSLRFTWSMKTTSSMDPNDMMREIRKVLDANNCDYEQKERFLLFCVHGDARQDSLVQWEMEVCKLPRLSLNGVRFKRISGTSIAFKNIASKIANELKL
smiles,measurement,setting,value
NC(N)=NCCC[C@H](NCN1CCN(C(=O)c2cc(Cc3n[nH]c(=O)c4ccccc34)ccc2F)CC1)C(=O)O [PPNR-4],pIC50,ALK,< 5.00
same,pIC50,BRK,< 5.00
same,pIC50,BRSK2,< 5.00
same,pIC50,CaMK1α,< 5.00
same,pIC50,CaMK2α,< 5.00
same,pIC50,CLK1,< 5.00
same,pIC50,CRAF,< 5.00
same,pIC50,CK1α,< 5.00
same,pIC50,DCAMKL1,< 5.00
same,pIC50,DDR1,< 5.00
same,pIC50,DNA-PK,< 5.00
same,pIC50,DYRK1A,< 5.00
same,pIC50,DYRK3,< 5.00
same,pIC50,EPHB2,< 5.00
same,pIC50,Erk1,< 5.00
same,pIC50,FGR,< 5.00
same,pIC50,FRK,< 5.00
same,pIC50,IGF1R,< 5.00
same,pIC50,JAK2,< 5.00
same,pIC50,JNK1,< 5.00
same,pIC50,JNK2,< 5.00
same,pIC50,KIT,< 5.00
same,pIC50,MARK1,< 5.00
same,pIC50,MARK3,< 5.00
same,pIC50,MLK1,< 5.00
same,pIC50,MRCKβ,< 5.00
same,pIC50,PARP3,< 5.00
same,pIC50,PARP13,< 5.00
same,pKd,NRP1,7.78
same,pKd,PARP1,8.15
